Measured values reported in patent US10077258B2, “Substituted pyrimidine compounds as phosphatidylinositol 3-kinase delta inhibitor and use thereof” (NANJING SANHOME PHARMACEUTICAL CO., LTD., priority 2015, dated 2018).

What was measured:
[1] = molecular target: T1, PI3Kδ (Homo sapiens, UniProt O00329); assay: In vitro kinase activity (LabChip EZ Reader mobility shift), PI3Kδ; assay type: biochemical; conditions: for IC50: kinase subtype PI3Kδ (p110δ/p85a)
T1 construct: purchased Millipore 14-604-K
T1 sequence (O00329 whole entry): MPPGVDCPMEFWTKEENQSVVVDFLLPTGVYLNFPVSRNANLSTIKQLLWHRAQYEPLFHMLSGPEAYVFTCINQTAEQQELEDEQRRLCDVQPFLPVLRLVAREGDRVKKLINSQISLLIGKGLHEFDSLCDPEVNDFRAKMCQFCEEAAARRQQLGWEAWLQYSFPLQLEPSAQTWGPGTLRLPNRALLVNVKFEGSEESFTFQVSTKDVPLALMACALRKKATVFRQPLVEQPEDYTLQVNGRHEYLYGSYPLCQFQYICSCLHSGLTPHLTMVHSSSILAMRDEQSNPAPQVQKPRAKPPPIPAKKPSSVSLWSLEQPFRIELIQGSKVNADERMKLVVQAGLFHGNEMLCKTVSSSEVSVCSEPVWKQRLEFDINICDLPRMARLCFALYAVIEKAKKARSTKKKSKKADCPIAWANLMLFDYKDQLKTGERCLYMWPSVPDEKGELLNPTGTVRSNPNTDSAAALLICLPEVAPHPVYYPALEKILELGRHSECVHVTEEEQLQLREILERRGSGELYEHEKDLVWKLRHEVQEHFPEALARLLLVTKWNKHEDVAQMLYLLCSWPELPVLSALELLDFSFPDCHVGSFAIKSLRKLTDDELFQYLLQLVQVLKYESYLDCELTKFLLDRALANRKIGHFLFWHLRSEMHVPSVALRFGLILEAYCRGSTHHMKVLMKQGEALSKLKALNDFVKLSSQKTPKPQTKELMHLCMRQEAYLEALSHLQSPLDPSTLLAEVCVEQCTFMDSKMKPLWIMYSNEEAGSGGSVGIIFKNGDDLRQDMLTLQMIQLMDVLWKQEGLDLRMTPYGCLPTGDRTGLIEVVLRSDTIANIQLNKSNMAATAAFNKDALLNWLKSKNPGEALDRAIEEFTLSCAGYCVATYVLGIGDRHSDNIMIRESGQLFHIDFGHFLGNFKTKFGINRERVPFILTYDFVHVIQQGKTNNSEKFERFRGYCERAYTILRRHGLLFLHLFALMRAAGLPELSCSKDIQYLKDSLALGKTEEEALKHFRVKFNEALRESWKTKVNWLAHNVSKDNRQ
T1 sequence (P27986 whole entry partner): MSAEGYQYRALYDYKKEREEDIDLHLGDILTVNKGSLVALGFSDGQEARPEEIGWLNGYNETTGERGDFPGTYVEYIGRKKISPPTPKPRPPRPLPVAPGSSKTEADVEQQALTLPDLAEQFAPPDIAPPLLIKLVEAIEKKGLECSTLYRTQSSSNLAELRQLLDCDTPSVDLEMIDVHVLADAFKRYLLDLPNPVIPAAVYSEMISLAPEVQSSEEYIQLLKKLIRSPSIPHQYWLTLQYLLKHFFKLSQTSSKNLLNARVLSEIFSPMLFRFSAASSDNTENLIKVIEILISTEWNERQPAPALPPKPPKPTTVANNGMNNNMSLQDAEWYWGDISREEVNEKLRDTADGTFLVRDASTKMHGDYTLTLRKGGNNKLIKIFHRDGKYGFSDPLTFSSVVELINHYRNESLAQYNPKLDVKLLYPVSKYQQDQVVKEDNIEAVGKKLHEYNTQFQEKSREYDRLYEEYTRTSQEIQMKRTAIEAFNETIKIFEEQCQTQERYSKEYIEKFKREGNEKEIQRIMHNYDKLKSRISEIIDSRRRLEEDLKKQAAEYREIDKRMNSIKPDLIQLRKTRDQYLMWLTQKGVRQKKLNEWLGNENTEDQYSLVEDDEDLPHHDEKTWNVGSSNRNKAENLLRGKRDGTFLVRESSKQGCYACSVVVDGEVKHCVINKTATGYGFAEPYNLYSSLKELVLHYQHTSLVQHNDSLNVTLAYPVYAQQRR
Procedure: (§1) Compounds: the compounds prepared in above examples of the present invention, each of which was prepared to a concentration of 10 mM in DMSO and diluted to […], 100 nM, 10 nM, 1 nM, 0.1 nM, 0.01 nM successively.
(§2) Reagents: PI3Kα (p110α(p85a), purchased from Invitrogen, Cat.No. PV4788; PIK3Cδ (p110δ/p85a), purchased from Millipore, Cat.No. 14-604-K; PIK3Cβ (p110β), purchased from Millipore, Cat.No. 14-603-K; PIK3Cγ (pp110γ), purchased from Invitrogen, Cat.No. PR8641C; DMSO, purchased from Sigma; EDTA, purchased from Sigma; 1× kinase buffer (50 mM HEPES, pH 7.5, 0.0015% Brij-35, 10 mM MgCl2, 2 mM DTT), which was prepared before use; termination solution (100 mM HEPES, pH 7.5, 0.015% Brij-35, 0.2% Coating Reagent#3, 50 mM EDTA), which was prepared before use.
(§3) Instruments: LabChip EZ Reader purchased from Caliper, USA.
(§4) 2.1 10 μl solution of each concentration of each compound was placed into 96-well plate and 90 μl of 1× kinase buffer was added. DMSO control group and control group without kinase activity were set up, which all contained 10 μl DMSO and 90 μl of 1× kinase buffer. Each group was mixed well at room temperature for 10 min, and then 5 μl of each group was transferred to a 384-well plate.
(§5) 2.2 Kinases were dissolved in 1× kinase buffer to prepare a 2.5× kinase solution. 10 μl of 2.5× kinase solution was transferred to the 384-well plate containing compounds of different concentrations. 10 μl of 2.5× kinase solution was added to DMSO control group and 10 μl of 1× kinase buffer without kinase was added to control group without kinase activity. The plate was incubated at room temperature for 10 min.
(§6) 2.3 ATP and the polypeptide labeled with FAM were dissolved in 1× kinase buffer to prepare 2.5× substrate solution. Then 10 μl of 2.5× substrate solution was transferred to the 384-well plate and incubated at 28° C. for 1 h.
(§7) 2.4 25 μl of termination solution was added to each well to terminate the reaction.
(§8) 2.5 The plate was placed on the LabChip EZ Reader to read the data of conversion rate and inhibitory rate (1%) was calculated according to formula: I %=(Max−Com)/(Max−Min)×100, wherein Max was the conversion rate of DMSO control group, Min was the conversion rate of control group without kinase activity, Com was the conversion rate of compound treatment group. IC50 was fitted by XLfit processing of the data.

[2] = molecular target: T2, PI3Kα (Homo sapiens, UniProt P42336); assay: In vitro kinase activity (LabChip EZ Reader mobility shift), PI3Kα; assay type: biochemical; conditions: kinase subtype PI3Kα (p110α/p85a)
T2 construct: purchased Invitrogen PV4788
T2 sequence (P42336 whole entry): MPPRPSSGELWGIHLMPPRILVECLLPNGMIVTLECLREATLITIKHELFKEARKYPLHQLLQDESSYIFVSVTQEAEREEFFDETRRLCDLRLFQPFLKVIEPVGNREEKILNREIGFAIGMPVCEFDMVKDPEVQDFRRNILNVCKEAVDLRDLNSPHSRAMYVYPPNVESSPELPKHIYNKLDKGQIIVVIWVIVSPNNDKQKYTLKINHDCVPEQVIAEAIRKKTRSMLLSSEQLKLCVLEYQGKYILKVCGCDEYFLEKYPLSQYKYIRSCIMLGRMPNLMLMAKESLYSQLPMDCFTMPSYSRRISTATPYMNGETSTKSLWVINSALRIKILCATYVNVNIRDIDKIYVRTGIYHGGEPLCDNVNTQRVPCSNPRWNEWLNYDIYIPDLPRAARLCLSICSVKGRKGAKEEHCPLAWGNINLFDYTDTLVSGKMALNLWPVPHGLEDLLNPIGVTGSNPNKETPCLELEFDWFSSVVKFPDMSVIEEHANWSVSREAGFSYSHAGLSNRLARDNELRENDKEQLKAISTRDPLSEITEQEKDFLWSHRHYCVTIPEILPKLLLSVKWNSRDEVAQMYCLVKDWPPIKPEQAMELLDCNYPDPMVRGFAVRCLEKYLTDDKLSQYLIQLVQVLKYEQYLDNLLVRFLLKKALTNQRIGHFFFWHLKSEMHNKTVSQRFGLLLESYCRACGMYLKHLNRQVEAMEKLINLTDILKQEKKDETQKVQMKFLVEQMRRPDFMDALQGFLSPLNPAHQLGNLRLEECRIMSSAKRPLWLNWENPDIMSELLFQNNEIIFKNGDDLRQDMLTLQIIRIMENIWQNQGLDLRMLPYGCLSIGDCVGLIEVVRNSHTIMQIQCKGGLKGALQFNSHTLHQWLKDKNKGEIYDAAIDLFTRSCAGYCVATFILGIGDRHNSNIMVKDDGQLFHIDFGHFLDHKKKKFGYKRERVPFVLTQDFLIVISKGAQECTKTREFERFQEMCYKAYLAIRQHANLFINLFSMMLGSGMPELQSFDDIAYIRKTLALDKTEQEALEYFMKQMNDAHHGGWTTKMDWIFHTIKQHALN
T2 sequence (P27986 whole entry partner): as the sequence (P27986 whole entry partner) above
Procedure: as §1, §2, §3, §4, §5, §6, §7, §8

[3] = molecular target: T3, PI3Kβ (Homo sapiens, UniProt P42338); assay: In vitro kinase activity (LabChip EZ Reader mobility shift), PI3Kβ; assay type: biochemical; conditions: kinase subtype PI3Kβ (p110β)
T3 construct: purchased Millipore 14-603-K
T3 sequence (P42338 whole entry): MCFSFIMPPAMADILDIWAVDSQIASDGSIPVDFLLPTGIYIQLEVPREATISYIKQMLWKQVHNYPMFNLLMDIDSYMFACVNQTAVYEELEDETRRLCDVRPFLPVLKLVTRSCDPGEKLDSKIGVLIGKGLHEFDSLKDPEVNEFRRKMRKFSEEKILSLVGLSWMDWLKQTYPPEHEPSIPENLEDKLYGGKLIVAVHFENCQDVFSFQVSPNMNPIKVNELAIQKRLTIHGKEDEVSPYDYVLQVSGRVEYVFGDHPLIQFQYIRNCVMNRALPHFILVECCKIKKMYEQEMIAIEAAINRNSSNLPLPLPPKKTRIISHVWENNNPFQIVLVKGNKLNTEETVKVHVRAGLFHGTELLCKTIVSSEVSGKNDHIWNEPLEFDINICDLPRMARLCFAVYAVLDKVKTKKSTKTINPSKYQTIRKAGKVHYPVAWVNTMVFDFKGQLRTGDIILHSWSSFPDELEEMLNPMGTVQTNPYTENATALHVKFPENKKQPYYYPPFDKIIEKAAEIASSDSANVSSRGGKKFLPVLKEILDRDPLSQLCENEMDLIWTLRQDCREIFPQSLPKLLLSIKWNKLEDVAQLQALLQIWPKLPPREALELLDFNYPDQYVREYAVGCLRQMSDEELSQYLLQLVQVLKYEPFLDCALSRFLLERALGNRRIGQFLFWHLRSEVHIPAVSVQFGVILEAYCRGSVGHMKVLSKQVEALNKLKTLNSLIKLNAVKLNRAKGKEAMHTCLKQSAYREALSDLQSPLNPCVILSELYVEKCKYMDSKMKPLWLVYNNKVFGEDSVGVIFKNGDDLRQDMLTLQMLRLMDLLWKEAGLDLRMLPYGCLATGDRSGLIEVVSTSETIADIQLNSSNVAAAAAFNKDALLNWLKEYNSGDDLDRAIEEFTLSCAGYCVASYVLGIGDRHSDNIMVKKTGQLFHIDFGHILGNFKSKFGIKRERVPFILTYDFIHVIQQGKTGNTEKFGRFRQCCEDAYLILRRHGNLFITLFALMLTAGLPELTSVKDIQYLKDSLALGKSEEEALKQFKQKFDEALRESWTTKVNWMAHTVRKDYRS
T3 sequence (P27986 whole entry partner): as the sequence (P27986 whole entry partner) above
Procedure: as §1, §2, §3, §4, §5, §6, §7, §8

[4] = molecular target: T4, PI3Kγ (Homo sapiens, UniProt P48736); assay: In vitro kinase activity (LabChip EZ Reader mobility shift), PI3Kγ; assay type: biochemical; conditions: kinase subtype PI3Kγ (p110γ)
T4 construct: purchased Invitrogen PR8641C
T4 sequence (P48736 whole entry): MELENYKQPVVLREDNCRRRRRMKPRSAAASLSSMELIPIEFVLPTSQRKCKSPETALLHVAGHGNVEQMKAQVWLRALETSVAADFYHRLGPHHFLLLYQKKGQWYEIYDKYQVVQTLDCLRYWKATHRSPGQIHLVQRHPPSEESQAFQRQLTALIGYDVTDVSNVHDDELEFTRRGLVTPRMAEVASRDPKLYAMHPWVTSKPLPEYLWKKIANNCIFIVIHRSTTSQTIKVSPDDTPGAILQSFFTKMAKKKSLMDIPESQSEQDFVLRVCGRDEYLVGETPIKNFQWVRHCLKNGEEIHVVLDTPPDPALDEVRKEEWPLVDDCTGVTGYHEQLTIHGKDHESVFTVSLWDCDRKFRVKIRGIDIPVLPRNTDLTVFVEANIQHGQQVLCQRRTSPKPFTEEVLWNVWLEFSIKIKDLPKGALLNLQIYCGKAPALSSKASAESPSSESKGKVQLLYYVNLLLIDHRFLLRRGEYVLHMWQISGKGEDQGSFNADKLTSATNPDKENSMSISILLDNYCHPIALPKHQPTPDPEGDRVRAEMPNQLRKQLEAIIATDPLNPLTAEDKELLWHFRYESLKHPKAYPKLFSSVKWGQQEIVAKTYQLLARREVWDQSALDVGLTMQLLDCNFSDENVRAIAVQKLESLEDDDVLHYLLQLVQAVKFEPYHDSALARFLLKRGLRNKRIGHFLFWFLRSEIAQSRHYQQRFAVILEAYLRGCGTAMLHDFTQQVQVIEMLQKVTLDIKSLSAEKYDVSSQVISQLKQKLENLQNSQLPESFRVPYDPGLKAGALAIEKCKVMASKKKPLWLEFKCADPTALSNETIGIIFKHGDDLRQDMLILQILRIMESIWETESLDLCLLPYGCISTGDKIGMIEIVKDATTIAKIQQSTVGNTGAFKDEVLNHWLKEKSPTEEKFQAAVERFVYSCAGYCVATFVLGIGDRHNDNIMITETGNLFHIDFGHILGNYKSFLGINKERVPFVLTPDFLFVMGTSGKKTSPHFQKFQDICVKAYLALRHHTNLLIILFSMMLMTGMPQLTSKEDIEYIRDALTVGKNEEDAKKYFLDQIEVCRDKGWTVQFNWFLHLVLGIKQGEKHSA
Procedure: as §1, §2, §3, §4, §5, §6, §7, §8

[5] = system: SU-DHL-5 lymphoma cells; assay: In vitro cell activity, CellTiter-Glo cell viability, SU-DHL-5; assay type: cell-based; conditions: Homo sapiens, SU-DHL-5 lymphoma cell line, 72 h
Procedure: Compounds: the compounds prepared in above examples of the present invention, each of which was prepared to a concentration of 10 mM in DMSO and diluted 3 times to 20000.00 nM, 6666.67 nM, 2222.22 nM, 740.74 nM, 246.91 nM, 27.43 nM, 9.14 nM, 3.05 nM successively.
The lymphoma cell lines SU-DHL-5 and SU-DHL-6 were purchased from the American Type Culture Collection (ATCC).
Reagents: PRMI-1640, purchased from Invitrogen (USA); FBS, purchased from Invitrogen (USA); EDTA, purchased from Sigma (USA); CellTiter-Glo® Luminescent Cell Viability Assay Kit, purchased from Progema (USA); Backseal membrane, purchased from Perkin Elmer (USA).
The cells were thawed in a 37° C. water bath and then transferred to 15 ml preheated medium. The cells were centrifuged at 1000 rpm for 5 min and the medium was discarded. The cells were resuspended in 15 ml fresh medium and transferred to T75 culture flask and incubated in an incubator at 37° C. with 5% CO2. The medium was replaced with fresh medium 24 h later.
The resuscitated cells above were transferred to a 50 ml sterile centrifuge tube and centrifuged at 1000 rpm for 5 min. The medium was discarded, and the cells were dispersed uniformly and counted. The appropriate cell concentration was adjusted in 15 ml fresh medium and added to T75 culture flask. The flask was incubated in an incubator at 37° C. with 5% CO2.
When the cells in the T75 culture flask grew to 1×10^5˜1×10^6 cells/ml, the cells were resuspended with fresh medium (RPMI-1640+20% FBS) and counted. The resuspended cells were adjusted to the following eight concentrations: 1×10^4 cells/ml, 2×10^4 cells/ml, 3×10^4 cells/ml, 5×10^4 cells/ml, 8×10^4 cells/ml, 1×10^5 cells/ml, 1.5×10^5 cells/ml, and 2×10^5 cells/ml. The above cell suspensions were added to 96-well cell culture plate, 100 μl each well (1×10^3 cells/ml, 2×10^3 cells/ml, 3×10^3 cells/ml, 5×10^3 cells/ml, 8×10^3 cells/ml, 1×10^4 cells/ml, 1.5×10^4 cells/ml, and 2×10^4 cells/ml, respectively). Each concentration was done double in three plates. 72 h later, 100 μl CellTiter-Glo® Luminescent Cell Viability Assay buffer was added to test wells and shaken gently. 10 min later, the Assay plate was attached at the bottom by Backseal membrane and placed on Envison to detect the fluorescence reading. Cell survive (%) was calculated according to the formula: cell survive (%)=(Com−Min)/(Max−Min), wherein Max was the reading of solvent control group, Min was the reading of control group without cells, and Com was the reading of compound treatment group.

SMILES | IC50 [1] | IC50 [2] | IC50 [3] | IC50 [4] | IC50 [5] | selectivity (PI3Kδ over the other PI3K subtypes), in words ([1]; PI3Kδ versus PI3Kα, PI3Kβ, PI3Kγ)
CC(Nc1nc(N)nc(N)c1C#N)c1c(-c2ccccc2)[nH]c2ccccc2c1=O (stereo not shown) [Example 22, 2,4-Diamino-5-cyano-6-((1-(4-oxo-2-phenyl-1,4-dihydroquinolin-3-yl)ethyl)amino)pyrimidine] | 11 nM | 675 nM | 635 nM | 60 nM |  | 
CC(Nc1ncnc(N)c1C#N)c1c(-c2ccccc2)[nH]c2c(Cl)cccc2c1=O (stereo not shown) [Example 9, 4-Amino-5-cyano-6-((1-(8-chloro-4-oxo-2-phenyl-1,4-dihydroquinolin-3-yl)ethyl)amino)pyrimidine] | 3.8 nM | 219 nM | 139 nM | 66 nM | 0.58 µM | 
N#Cc1c(N)ncnc1NCc1c(-c2ccccc2)[nH]c2ccccc2c1=O [Example 15] | 21 nM | > 1000 nM | > 1000 nM | > 1000 nM | 4.94 µM | 
CCC(Nc1ncnc(N)c1C#N)c1c(-c2ccccc2)[nH]c2ccccc2c1=O (stereo not shown) [Example 13, 4-Amino-5-cyano-6-((1-(4-oxo-2-phenyl-1,4-dihydroquinolin-3-yl)propyl)amino)pyrimidine] | 5.8 nM | > 1000 nM | > 1000 nM | > 1000 nM | 1.11 µM | 
CC(Nc1ncnc(N)c1C#N)c1c(-c2cc(F)cc(F)c2)c(=O)c2cc(F)ccc2n1C (stereo not shown) [Comparative Example 1, 4-Amino-5-cyano-6-(1-(3-(3,5-difluorophenyl)-6-fluoro-1-methyl-4-oxo-1,4-dihydroquinoline-2-yl)ethylamino)pyrimidine, reference compound] | 20 nM |  |  |  |  | poor
CC(Nc1nc(N)nc(N)c1C#N)c1c(-c2ccccc2)oc2c(F)cccc2c1=O (stereo not shown) [Example 8, 2,4-Diamino-5-cyano-6-(1-(8-fluoro-4-oxo-2-phenyl-4H-chromen-3-yl)ethylamino) pyrimidine] | 6.6 nM | > 1000 nM | 385 nM | 134 nM | 1.02 µM | 
N#Cc1c(N)nc(N)nc1NCc1c(-c2ccccc2)oc2ccccc2c1=O [Example 2, 2,4-Diamino-5-cyano-6-(4-oxo-2-phenyl-4H-chromen-3-yl) methylaminopyrimidine] | 13.5 nM |  |  |  |  | 
N#Cc1c(N)nc(N)nc1NCc1c(-c2ccccc2)[nH]c2c(Cl)cccc2c1=O [Example 18] | 2 nM | 336 nM | 99 nM | 61 nM | 3.4 µM | 
CC(Nc1ncnc(N)c1C#N)c1c(-c2ccccc2)oc2c(F)cccc2c1=O (stereo not shown) [Example 7, 4-Amino-5-cyano-6-(1-(8-fluoro-4-oxo-2-phenyl-4H-chromen-3-yl)ethylamino) pyrimidine] | 5 nM | > 1000 nM | > 1000 nM | > 1000 nM | 1.43 µM | 
CC(Nc1ncnc(N)c1C#N)c1c(-c2ccccc2)oc2c(Cl)cccc2c1=O (stereo not shown) [Example 5, 4-Amino-5-cyano-6-(1-(8-chloro-4-oxo-2-phenyl-4H-chromen-3-yl)ethylamino) pyrimidine] | 11 nM | > 1000 nM | > 1000 nM | > 1000 nM | 0.61 µM | 
CC(Nc1ncnc(N)c1C#N)c1c(-c2ccccc2)oc2ccccc2c1=O (stereo not shown) [Example 3, 4-Amino-5-cyano-6-(1-(4-oxo-2-phenyl-4H-chromen-3-yl)ethylamino) pyrimidine] | 17 nM | > 1000 nM | > 1000 nM | > 1000 nM | 0.86 µM | 
CC(Nc1nc(N)nc(N)c1C#N)c1c(-c2ccccc2)oc2c(Cl)cccc2c1=O (stereo not shown) [Example 6, 2,4-Diamino-5-cyano-6-(1-(8-chloro-4-oxo-2-phenyl-4H-chromen-3-yl)ethylamino)pyrimidine] | 9.5 nM | > 1000 nM | 881 nM | 84 nM | 1.23 µM | 

Results, then the compound that gave them:

IC50 [1] | IC50 [2] | IC50 [3] | IC50 [4] | IC50 [5] | selectivity (PI3Kδ over the other PI3K subtypes), in words ([1]; PI3Kδ versus PI3Kα, PI3Kβ, PI3Kγ) | SMILES
2.3 nM | > 1000 nM | 972 nM | 814 nM |  |  | CC(Nc1ncnc(N)c1C#N)c1c(-c2cccc(F)c2)n(C)c2ccccc2c1=O (stereo not shown) [Example 26, 4-Amino-5-cyano-6-((1-(1-methyl-4-oxo-2-(3-fluorophenyl)-1,4-dihydroquinolin-3-yl)ethyl)amino) pyrimidine]
1.4 nM | 114 nM | 60 nM | 5.7 nM |  |  | CC(Nc1nc(N)nc(N)c1C#N)c1c(-c2ccccc2)[nH]c2c(Cl)cccc2c1=O (stereo not shown) [Example 23, 2,4-Diamino-5-cyano-6-((1-(8-chloro-4-oxo-2-phenyl-1,4-dihydroquinolin-3-yl)ethyl)amino)pyrimidine]
1.4 nM | 39 nM | 38 nM | 11 nM |  |  | CC(Nc1nc(N)nc(N)c1C#N)c1c(-c2ccccc2)n(C)c2c(Cl)cccc2c1=O (stereo not shown) [Example 27, 2,4-Diamino-5-cyano-6-((1-(8-chloro-1-methyl-4-oxo-2-phenyl-1,4-dihydroquinolin-3-yl)ethyl)amino)pyrimidine]
4.8 nM | > 1000 nM | > 1000 nM | 673 nM |  |  | CCC(Nc1nc(N)nc(N)c1C#N)c1c(-c2ccccc2)oc2ccccc2c1=O (stereo not shown) [Example 32, 2,4-Diamino-5-cyano-6-(1-(4-oxo-2-phenyl-4H-chromen-3-yl)propylamino) pyrimidine]
3.6 nM | > 1000 nM | > 1000 nM | 155 nM |  |  | CC(Nc1nc(N)nc(N)c1C#N)c1c(-c2cccc(F)c2)oc2ccccc2c1=O (stereo not shown) [Example 30, 2,4-Diamino-5-cyano-6-(1-(2-(3-fluorophenyl)-4-oxo-4H-chromen-3-yl)ethylamino) pyrimidine]
1.8 nM | 127 nM | 113 nM | 21 nM |  |  | CC(Nc1nc(N)nc(N)c1C#N)c1c(-c2ccccc2)n(C)c2ccccc2c1=O (stereo not shown) [Example 25, 2,4-Diamino-5-cyano-6-((1-(1-methyl-4-oxo-2-phenyl-1,4-dihydroquinolin-3-yl)ethyl)amino) pyrimidine]
